Experiments:
[1] = test system: Candida albicans (DSM 11948); assay: Short-term effect (CFU); type: cell-based
Procedure: (§1) For this purpose, the procedure was as follows.
YM growth medium (Becton, Dickinson and Company, Sparks, USA) 3 g of yeast extract 3 g of malt extract 5 g of peptone 10 g of dextrose make up to 1 liter, set pH 6.2
The growth test was effected as follows: 5 ml of YM medium were inoculated with C. albicans and incubated at 30° C. and 200 rpm overnight.
1.5 ml reaction vessels were filled with 1 ml each of YM medium and inoculated with the C. albicans suspension of the overnight culture. The resulting C. albicans suspension was set at the start of the experiment to an optical density, measured at 600 nm, of 0.1. The concentration of the peptide solution in water or ZPT solution (zinc pyrithione, >96%, Sigma Aldrich) dissolved in DMSO was 2% (w/w).
(§2) The following growth was compared: • C. albicans suspension and addition of P18 peptide with a final concentration in the 1.5 ml reaction vessel of 50 ppm after 5 minutes, 10 minutes, 20 minutes and 60 minutes • C. albicans suspension and addition of P18 peptide with a final concentration in the 1.5 ml reaction vessel of 100 ppm after 5 minutes, 10 minutes, 20 minutes and 60 minutes • C. albicans suspension and addition of P18 peptide with a final concentration in the 1.5 ml reaction vessel of 200 ppm after 5 minutes, 10 minutes, 20 minutes and 60 minutes • C. albicans suspension and addition of P18 peptide with a final concentration in the 1.5 ml reaction vessel of 500 ppm after 5 minutes, 10 minutes, 20 minutes and 60 minutes • C. albicans suspension and addition of P18 peptide with a final concentration in the 1.5 ml reaction vessel of 1000 ppm after 5 minutes, 10 minutes, 20 minutes and 60 minutes • C. albicans suspension and addition of ZPT with a final concentration in the 1.5 ml reaction vessel of 50 ppm after 5 minutes, 10 minutes, 20 minutes and 60 minutes • C. albicans suspension and addition of ZPT with a final concentration in the 1.5 ml reaction vessel of 100 ppm after 5 minutes, 10 minutes, 20 minutes and 60 minutes • C. albicans suspension and addition of ZPT with a final concentration in the 1.5 ml reaction vessel of 200 ppm after 5 minutes, 10 minutes, 20 minutes and 60 minutes • C. albicans suspension and addition of ZPT with a final concentration in the 1.5 ml reaction vessel of 500 ppm after 5 minutes, 10 minutes, 20 minutes and 60 minutes • C. albicans suspension and addition of ZPT with a final concentration in the 1.5 ml reaction vessel of 1000 ppm after 5 minutes, 10 minutes, 20 minutes and 60 minutes
(§3) The 1.5 ml reaction vessels were incubated at room temperature.
After the incubation times specified, the colony forming units (CFU) were determined by streaking 1 μl of each of the suspensions diluted in 20 μl of YM medium and, after incubation for 2 days, counting the colonies.

[2] = test system: Trichophyton rubrum (DSM21146); assay: Short-term effect (CFU); type: cell-based
Procedure: as §1
MEP growth medium according to DSMZ:
30 g of malt extract (Becton, Dickinson and Company, Sparks, USA) 3 g of soya peptone (Becton, Dickinson and Company, Sparks, USA) make up to 1 liter, set pH 5.6
The growth test was effected as follows: an agar plate on which the Trichophyton rubrum culture had grown was rinsed with 5 ml of MEP medium.
1.5 ml reaction vessels were each filled with 1 ml of MEP medium and inoculated with 10 μl of the T. rubrum suspension. The concentration of the peptide solution in water or ZPT solution (zinc pyrithione, >96%, Sigma Aldrich) dissolved in DMSO was 2% (w/w).
as §2, with “T. rubrum” for “C. albicans”
as §3
After the incubation times specified, the colony forming units (CFU) were determined by streaking 1 μl of each of the suspensions diluted with 20 μl of MEP medium and, after incubation for 2 days, counting the colonies.

Substance: H-KWKLFKKIPKFLHLAKKF-NH2 [P18, H-KWKLFKKIPKFLHLAKKF-NH2]
- Colony forming units after the incubation time specified ([1]; 50 ppm, 5 minutes): 986 ± 280 CFU
- Colony forming units after the incubation time specified ([1]; 50 ppm, 10 minutes): 944 ± 209 CFU
- Colony forming units after the incubation time specified ([1]; 50 ppm, 20 minutes): 954 ± 14 CFU
- Colony forming units after the incubation time specified ([1]; 50 ppm, 60 minutes): 518 ± 82 CFU
- Colony forming units after the incubation time specified ([1]; 100 ppm, 5 minutes): 718 ± 116 CFU
- Colony forming units after the incubation time specified ([1]; 100 ppm, 10 minutes): 628 ± 112 CFU
- Colony forming units after the incubation time specified ([1]; 100 ppm, 20 minutes): 454 ± 127 CFU
- Colony forming units after the incubation time specified ([1]; 100 ppm, 60 minutes): 25 ± 0 CFU
- Colony forming units after the incubation time specified ([1]; 200 ppm, 5 minutes): 242 ± 122 CFU
- Colony forming units after the incubation time specified ([1]; 200 ppm, 10 minutes): 72 ± 2 CFU
- Colony forming units after the incubation time specified ([1]; 200 ppm, 20 minutes): 29 ± 2 CFU
- Colony forming units after the incubation time specified ([1]; 200 ppm, 60 minutes): 1 ± 1 CFU
- Colony forming units after the incubation time specified ([1]; 500 ppm, 5 minutes): 39 ± 1 CFU
- Colony forming units after the incubation time specified ([1]; 500 ppm, 10 minutes): 5 ± 6 CFU
- Colony forming units after the incubation time specified ([1]; 500 ppm, 20 minutes): 1 ± 1 CFU
- Colony forming units after the incubation time specified ([1]; 500 ppm, 60 minutes): 0 ± 0 CFU
- Colony forming units after the incubation time specified ([1]; 1000 ppm, 5 minutes): 10 ± 2 CFU
- Colony forming units after the incubation time specified ([1]; 1000 ppm, 10 minutes): 1 ± 2 CFU
- Colony forming units after the incubation time specified ([1]; 1000 ppm, 20 minutes): 0 ± 0 CFU
- Colony forming units after the incubation time specified ([1]; 1000 ppm, 60 minutes): 0 ± 0 CFU
- Colony forming units after the incubation time specified ([2]; 50 ppm, 5 minutes): 59 CFU
- Colony forming units after the incubation time specified ([2]; 50 ppm, 10 minutes): 55 CFU
- Colony forming units after the incubation time specified ([2]; 50 ppm, 20 minutes): 35 CFU
- Colony forming units after the incubation time specified ([2]; 50 ppm, 60 minutes): 23 CFU
- Colony forming units after the incubation time specified ([2]; 100 ppm, 5 minutes): 41 CFU
- Colony forming units after the incubation time specified ([2]; 100 ppm, 10 minutes): 22 CFU
- Colony forming units after the incubation time specified ([2]; 100 ppm, 20 minutes): 36 CFU
- Colony forming units after the incubation time specified ([2]; 100 ppm, 60 minutes): 18 CFU
- Colony forming units after the incubation time specified ([2]; 200 ppm, 5 minutes): 32 CFU
- Colony forming units after the incubation time specified ([2]; 200 ppm, 10 minutes): 39 CFU
- Colony forming units after the incubation time specified ([2]; 200 ppm, 20 minutes): 24 CFU
- Colony forming units after the incubation time specified ([2]; 200 ppm, 60 minutes): 5 CFU
- Colony forming units after the incubation time specified ([2]; 500 ppm, 5 minutes): 30 CFU
- Colony forming units after the incubation time specified ([2]; 500 ppm, 10 minutes): 18 CFU
- Colony forming units after the incubation time specified ([2]; 500 ppm, 20 minutes): 9 CFU
- Colony forming units after the incubation time specified ([2]; 500 ppm, 60 minutes): 1 CFU
- Colony forming units after the incubation time specified ([2]; 1000 ppm, 5 minutes): 17 CFU
- Colony forming units after the incubation time specified ([2]; 1000 ppm, 10 minutes): 18 CFU
- Colony forming units after the incubation time specified ([2]; 1000 ppm, 20 minutes): 10 CFU
- Colony forming units after the incubation time specified ([2]; 1000 ppm, 60 minutes): 2 CFU
- Factor of reduction of the living cell count ([2]; cell count 10 times higher (data not shown)): ≤ 2
- Factor of reduction of the living cell count ([2]; concentration range studied (50-1000 ppm), first 60 minutes): ≤ 20

Substance: zinc pyrithione [ZPT]
- Inhibition in words ([1]; 50-1000 ppm, up to 60 minutes): no significant inhibition
- Colony forming units after the incubation time specified ([1]; 50 ppm, 5 minutes): 830 ± 190 CFU
- Colony forming units after the incubation time specified ([1]; 50 ppm, 10 minutes): 1096 ± 51 CFU
- Colony forming units after the incubation time specified ([1]; 50 ppm, 20 minutes): 986 ± 20 CFU
- Colony forming units after the incubation time specified ([1]; 50 ppm, 60 minutes): 982 ± 93 CFU
- Colony forming units after the incubation time specified ([1]; 100 ppm, 5 minutes): 809 ± 100 CFU
- Colony forming units after the incubation time specified ([1]; 100 ppm, 10 minutes): 1048 ± 74 CFU
- Colony forming units after the incubation time specified ([1]; 100 ppm, 20 minutes): 806 ± 105 CFU
- Colony forming units after the incubation time specified ([1]; 100 ppm, 60 minutes): 762 ± 212 CFU
- Colony forming units after the incubation time specified ([1]; 200 ppm, 5 minutes): 676 ± 204 CFU
- Colony forming units after the incubation time specified ([1]; 200 ppm, 10 minutes): 906 ± 331 CFU
- Colony forming units after the incubation time specified ([1]; 200 ppm, 20 minutes): 882 ± 190 CFU
- Colony forming units after the incubation time specified ([1]; 200 ppm, 60 minutes): 711 ± 125 CFU
- Colony forming units after the incubation time specified ([1]; 500 ppm, 5 minutes): 863 ± 35 CFU
- Colony forming units after the incubation time specified ([1]; 500 ppm, 10 minutes): 832 ± 192 CFU
- Colony forming units after the incubation time specified ([1]; 500 ppm, 20 minutes): 710 ± 71 CFU
- Colony forming units after the incubation time specified ([1]; 500 ppm, 60 minutes): 617 ± 134 CFU
- Colony forming units after the incubation time specified ([1]; 1000 ppm, 5 minutes): 806 ± 20 CFU
- Colony forming units after the incubation time specified ([1]; 1000 ppm, 10 minutes): 700 ± 153 CFU
- Colony forming units after the incubation time specified ([1]; 1000 ppm, 20 minutes): 550 ± 88 CFU
- Colony forming units after the incubation time specified ([1]; 1000 ppm, 60 minutes): 482 ± 69 CFU
- Inhibition in words ([2]; 50-1000 ppm, up to 60 minutes): no significant inhibition
- Colony forming units after the incubation time specified ([2]; 50 ppm, 5 minutes): 44 CFU
- Colony forming units after the incubation time specified ([2]; 50 ppm, 10 minutes): 51 CFU
- Colony forming units after the incubation time specified ([2]; 50 ppm, 20 minutes): 51 CFU
- Colony forming units after the incubation time specified ([2]; 50 ppm, 60 minutes): 55 CFU
- Colony forming units after the incubation time specified ([2]; 100 ppm, 5 minutes): 38 CFU
- Colony forming units after the incubation time specified ([2]; 100 ppm, 10 minutes): 54 CFU
- Colony forming units after the incubation time specified ([2]; 100 ppm, 20 minutes): 50 CFU
- Colony forming units after the incubation time specified ([2]; 100 ppm, 60 minutes): 48 CFU
- Colony forming units after the incubation time specified ([2]; 200 ppm, 5 minutes): 44 CFU
- Colony forming units after the incubation time specified ([2]; 200 ppm, 10 minutes): 51 CFU
- Colony forming units after the incubation time specified ([2]; 200 ppm, 20 minutes): 56 CFU
- Colony forming units after the incubation time specified ([2]; 200 ppm, 60 minutes): 49 CFU
- Colony forming units after the incubation time specified ([2]; 500 ppm, 5 minutes): 43 CFU
- Colony forming units after the incubation time specified ([2]; 500 ppm, 10 minutes): 47 CFU
- Colony forming units after the incubation time specified ([2]; 500 ppm, 20 minutes): 51 CFU
- Colony forming units after the incubation time specified ([2]; 500 ppm, 60 minutes): 44 CFU
- Colony forming units after the incubation time specified ([2]; 1000 ppm, 5 minutes): 52 CFU
- Colony forming units after the incubation time specified ([2]; 1000 ppm, 10 minutes): 62 CFU
- Colony forming units after the incubation time specified ([2]; 1000 ppm, 20 minutes): 47 CFU
- Colony forming units after the incubation time specified ([2]; 1000 ppm, 60 minutes): 48 CFU
